Patent publication US20090221082A1, “Microfluidic Evaporators And Determining Physical And/Or Chemical Properties Of Chemical Compounds Therewith” (Rhodia Operations, priority 2005, published 2009)

Assay: Evaporation-induced nucleation and crystal growth of KCl aqueous solutions in microchannel fingers
Format: physicochemical
Text: The devices used are two-layer PDMS on glass Microsystems (FIG. 1). The microchannels (flowing channel(s)) of the bottom layer are filled with the solution of interest, while air is circulated through the microchannels (evaporation chamber) of the top layer so as to remove the water that pervaporates through the thin membrane of PDMS that separate the two networks where they overlap (thickness e in the 10-30 μm range). Many combinations of geometries for the bottom and top networks can be envisaged. We focus here on the simple “finger” geometry of FIG. 1, a dead end (blind extremity) channel of rectangular cross section (height h, width w, length L) connected to a larger (millimetric) feeding reservoir containing the solution to be concentrated. A terminal section of length L0<L (typically mms to cms) is covered by the water removal network. The operation principle is simple: water in the bottom channel pervaporates through the thin membrane, which induces a compensating flow from the reservoir and concentration of solutes at the finger tip. […]
FIG. 11: Top: view of the chip with 15 microchannels with different evaporation lengths L0 (the bottom of the frame is the end of the evaporation zone). […] Crystal growth is then monitored xf(t). […]

## [Cl-].[K+] [KCl, potassium chloride]
KCl aqueous solution, at this temperature
  nucleation concentration cc: 4.0 ± 0.5 M
From initial crystal growth rate and mass conservation, Te=800±50 s
  solute concentration cx in the growing crystal (crystal density): 20 ± 2 M
